What all share (format): physicochemical
Series [1] can be described thus: Kinetic solubility in sodium lauryl sulfate (SLS) 60 mM, with XRD of remaining solid. As to conditions: room temperature. As for the experimental part: The mixture was stirred at room temperature with astir bar. The samples (n=3) were collected at each predetermined time points (5, 10, 15, 20, 30, 60, 90, 120, and 180 minutes) and centrifuged. The filtrate was analyzed by H PLC to determine solubility, and the remaining solid was analyzed by XRD as appropriate. Three replicates were performed for each condition.
The advantages of achieving higher degree of supersaturation from milled material (by providing larger surface area) and amorphous material (by providing higher solubility) were offset by phase transformation from Form D to Pattern C (i.e. hydrate form).
In each figure, the top spectrum corresponds to pure Form C, the second figure from the top of the figure corresponds to pure Form D, the third spectrum from the top of the figure corresponds to solid collected following 5 minutes of solubilization, the fourth spectrum from the top corresponds to solid collected following 60 minutes of solubilization, the fifth spectrum from the top corresponds to solid collected following 90 minutes of solubilization, and the bottom spectrum corresponds to solid collected following 180 minutes of solubilization. As indicated by these XRD data, the milled and amorphous materials were converted into Pattern C within 5 min after exposure to the dissolution medium. […]

Series [2] in a line: Bulk and tapped density (tap density tester). The text has this: Before milling, Form D was screened through a 30-micron mesh sieve. Then, Form D micronized using a 2-inch jet mill 70 psig feed pressure, 40 psig grinding pressure, and a 4.3 g/min powder feed rate. The micronization process provided a 69% yield and 95.6% crystallinity relative to the unmilled material.
Series [3] is described as follows: Competitive slurry experiments (solvent-mediated polymorph transformation, XRD). As to conditions: room temperature, water, MTBE or n-heptane, 1 and 7 days, listed as Pattern C. As for the experimental part:
Polymorph stability and interconversions were analyzed with competitive slurry experiments. The competitive slurry (solvent-mediated transformation) experiments were performed on Forms A, B, D, E, F, G, and I generated through scaled-up crystallization (summarized in TABLE 11). […] The suspensions were aliquoted at one day and seven days and filtered to isolate the solids. Remaining solid was analyzed by XRD without drying.
In FIG. 66, the second spectrum from the top corresponds to Form E. These XRD data confirmed that Patterns C, K, and D were afforded in these solvents.
In order to further confirm the rank of stability order of the selected forms and extend the temperature range of stability relationship up to 70° C. covering potential API process conditions, binary form slurries were conducted with starting mixtures of (1) Forms A and D, and (2) Forms D and E. The resultant polymorphs were characterized with XRD after 1 and 7 days, the results of which analyses are shown in FIGURE S 67-68 and summarized in TABLE 13. Pattern D stood out from both binary mixture slurries of A & D and of D & E after seven-day stirring at the elevated temperature.
Additional single form slurry experiments were conducted on Forms A, D, and E in either water or heptane at room temperature. […] In agreement with prior competitive slurry experiments, Form D was stable at room temperature in n-heptane. Pattern E was obtained from slurries starting with Forms A and E in n-heptane. As expected, Form C was formed from the Pattern E slurry in water.

A short description of series [4]: Thermal stress studies at 60° C. (XRD, HPLC). The following applies: incubated at 60° C., in less than 1 day. The procedure:
Briefly, 20 mg of solid Form A, B, C, D, E, F, G, and I were weighed into 7 mL glass vials. The vials were covered with tissue and stored in ovens set to 60° C. and ambient pressure. Following 1 and 7 days incubation, solid was collected for XRD analysis.
As shown in these figures, Forms B and C converted to Forms D and A, respectively, while the other forms remained unchanged.
The starting materials, intermediates (1 day of thermal stress), and products (7 days of thermal stress) were analyzed by H PLC. Representative chromatograms from the Form D thermal stress analyses are shown in FIGS. 81-83 (starting material, 1 day, and 7 day samples, respectively).

Series [5] in a line: PEG-stability analyses: Form C/Form D mixture slurried in PEG300 with water. As to conditions: 1:1 mixture of Forms C and D slurried in PEG300; XRD. As for the experimental part:
Of particular interest was whether Form D would convert to a hydrate (e.g., Form C) in the presence of water. To investigate the critical water concentration for phase interconversion between Pattern C and D, a series experiments were designed (as summarized in TABLE 16). A 1:1 mixture of Forms C and D was prepared and slurried in PEG 300 with different levels of water concentrations. Phase transformations were monitored with XRD, and are summarized in FIG. 85, which (from top to bottom) provides XRD of Form C, Form D, the mixture following incubation in PEG300 containing 75% water, the mixture following incubation in PEG300 containing 50% water, the mixture following incubation in PEG300 containing 25% water, the mixture following incubation in PEG300 containing 10% water, and the mixture following incubation in PEG300 containing 5% water. […] Form D is the stable form in PEG300 with less than 50% water.

A short description of series [6]: Solubility of Form C in binary solvent systems (TABLE 22).
Series [7] can be described thus: Equilibrium-solubility screening in solvents and excipients. The procedure: For these analyses, Form D or Form C was mixed with 0.5 or 1.0 mL of solvents and equilibrated for approximately 24 hours. The mixture was filtered through 0.45 μm centrifuge filters.
As expected, the compound was not easily ionized at physiologically relevant pH. […] In addition, these excipients included surfactants, co-solvents, and lipids which are amenable for use in self-emulsifying drug delivery systems (SEDDS). The XRD pattern of the starting material was maintained for each sample after equilibrium.

The nature of series [8]: Supersaturation monitoring in PEG 300. The following applies: PEG 300 (0.5 mL).

Each structure is given as a SMILES string. In brackets after ≈: the same amount, converted by molar mass.

In the case of `CC[C@H](C)C(=O)N1CCC(NC(=O)Nc2ccc(OC(F)(F)F)c(F)c2)CC1` [unmilled Form D, (S)-1-(3-fluoro-4-(trifluoromethoxy)phenyl)-3-(1-(2-methylbutanoyl)piperidin-4-yl)urea], the “time to full transition to the hydrate form (Form C)” value in series [1] came to 60 min. In series [2], this compound came in with a bulk density of 0.54 g/mL and a tapped density of 0.61 g/mL.

One may read the solubility as the dissolved amount per volume that the medium holds. A word on the solubility (thermodynamic): it is solubility found after equilibrating the solid with the medium. Consider `CC[C@H](C)C(=O)N1CCC(NC(=O)Nc2ccc(OC(F)(F)F)c(F)c2)CC1` [Form C, (S)-1-(3-fluoro-4-(trifluoromethoxy)phenyl)-3-(1-(2-methylbutanoyl)piperidin-4-yl)urea], for which, in series [3], the “polymorph stability in competitive slurry” value was “unstable hydrate”. In addition, the “conversion to Form A” value in series [4] was 100%. Besides, the “stable form in PEG300 with 50% or higher water content” value in series [5] is on record as “more stable”. For the same compound, the solubility in series [6] (IPA/n-heptane, ratio of n-heptane to primary 21.3, organic solvent or mixture) was 5 mg/mL; in series [6] (ethanol/n-heptane, organic solvent or mixture, EtOH, ratio of n-heptane to primary 7.7 (1st test point)) it was 38 mg/mL; in series [6] (ethanol/n-heptane, organic solvent or mixture, EtOH, ratio of n-heptane to primary 13.2 (2nd test point)) it was 10 mg/mL; in series [6] (ethyl acetate/n-heptane, organic solvent or mixture, EtoAC, ratio of n-heptane to primary 1.4 (1st test point)), 7 mg/mL; in series [6] (ethyl acetate/n-heptane, organic solvent or mixture, EtoAC, ratio of n-heptane to primary 2.0 (2nd test point)), 4 mg/mL; in series [6] (ethyl acetate/n-heptane, organic solvent or mixture, EtoAC, ratio of n-heptane to primary 2.2 (3rd test point)) it was 3 mg/mL. Also, the solubility came to 30 mg/mL in series [6] (organic solvent or mixture, IPA, ratio of n-heptane to primary 13.3 (1st test point)); 10 mg/mL in series [6] (organic solvent or mixture, IPA, ratio of n-heptane to primary 13.9 (2nd test point)); 11 mg/mL in series [6] (organic solvent or mixture, MEK, ratio of n-heptane to primary 2.0 (1st test point)); 5 mg/mL in series [6] (organic solvent or mixture, MEK, ratio of n-heptane to primary 3.0 (2nd test point)); 4 mg/mL in series [6] (organic solvent or mixture, MEK, ratio of n-heptane to primary 3.4 (3rd test point)). In addition, the “XRD Pattern At Equilibrium” value in series [7] (PEG 300, 50%) is “Form C”; in series [7] (PEG 300, 100%), “Form D”; in series [7] (PEG 400, 50%), “Form C”; in series [7] (PEG 400, 100%), “Form D”. The same compound came in with a thermodynamic solubility at 24 h in series [7] (PEG 300, 50%, aqueous with cosolvent or surfactant or cyclodextrin, thermodynamic from solid) of 0.8 mg/mL (≈ 1970 µM). Moreover, the “Equilibrium Solubility” value in series [7] (PEG 300, 100%) is given as 16.7 mg/mL; in series [7] (PEG 400, 50%), 0.4 mg/mL; in series [7] (PEG 400, 100%), 17.9 mg/mL. The “Step → Observation” value in series [8] (100 mg/mL, 1. RT stirring for 1 hr, listed as Pattern C) was 1. RT stirring for 1 hr →suspension; in series [8] (100 mg/mL, 2. 40 C. heating for 0.5 hr, listed as Pattern C), 2. 40 °C heating for 0.5 hr →clear solution; in series [8] (100 mg/mL, 3. RT storage for ~8 days, listed as Pattern C), 3. RT storage for ~8 days →clear solution; in series [8] (100 mg/mL, 4. RT storage for ~9 days, listed as Pattern C), 4. RT storage for ~9 days →precipitation; in series [8] (200 mg/mL, 1. RT stirring for 1 hr), 1. RT stirring for 1 hr →suspension; in series [8] (200 mg/mL, 2. 40 C. heating for 48 hr, listed as Pattern C), 2. 40 °C heating for 48 hr →suspension. Besides, the “Step → Observation” value was 3. 55 C. heating for <16 hr →clear solution in series [8] (200 mg/mL, 3. 55 C. heating for <16 hr); 4. RT storage for <3.5 days →precipitation in series [8] (200 mg/mL, 4. RT storage for <3.5 days); 5. 55 C. reheating for overnight →clear solution in series [8] (200 mg/mL, 5. 55 C. reheating for overnight); 6. RT storage for overnight →precipitation in series [8] (200 mg/mL, 6. RT storage for overnight).

These data come from US20260166021A1, “POLYMORPHIC FORMS OF A SOLUBLE EPOXIDE HYDROLASE INHIBITOR AND FORMULATIONS THEREOF” (EicOsis, LLC, priority 2022, published 2026).
